Results on 16 compounds are retold here after ChEMBL document CHEMBL3734724, “Anticancer efficacy of unique pyridine-based tetraindoles” (Eur J Med Chem, 2015).

In data set [1] the test system is MDA-MB-231. Nature of the data set: Cytotoxicity against human MDA-MB-231 cells assessed as growth inhibition after 48 hrs by MTT assay. The class given is functional, cell-based. Conditions: MDA-MB-231, 48 h. Background: Tetrazolium assays rely on reduction of a dye to a coloured formazan, in cell work by metabolically active cells.
A short description of data set [2]: Cytotoxicity against human BT549 cells assessed as growth inhibition after 48 hrs by MTT assay. Type of data set: functional, cell-based. Conditions: BT-549, 48 h.
Data set [3] can be described thus: Cytotoxicity against human Hs578T cells assessed as growth inhibition after 48 hrs by MTT assay. The class given is functional, cell-based. Conditions: Hs-578T.
Data set [4] has as its system MCF7. Nature of the data set: Cytotoxicity against human MCF7 cells assessed as growth inhibition after 48 hrs by MTT assay. To be noted: MCF7, 48 h. The class given is functional, cell-based.
Data set [5] can be described thus: Cytotoxicity against human M10 cells assessed as growth inhibition after 48 hrs by MTT assay. Type of data set: cell-based. To be noted: M10, 48 h.
Data set [6] deals with MDA-MB-231. Nature of the data set: Cytotoxicity against human MDA-MB-231 cells assessed as growth inhibition at 20 uM after 48 hrs by MTT assay relative to control. Type of data set: functional. Conditions: MDA-MB-231, 48 h, read-out: GI.
Data set [7] can be described thus: Cytotoxicity against human Hs578T cells assessed as growth inhibition at 20 uM after 48 hrs by MTT assay relative to control. Type of data set: functional. Conditions: Hs-578T, read-out: GI.
The test system of data set [8] is MCF7. Briefly: Cytotoxicity against human MCF7 cells assessed as growth inhibition at 20 uM after 48 hrs by MTT assay relative to control. To be noted: MCF7, 48 h, read-out: GI. The class given is functional.
The nature of data set [9]: Cytotoxicity against human M10 cells assessed as growth inhibition at 20 uM after 48 hrs by MTT assay relative to control. The class given is cell-based. Conditions: read-out: GI.
The nature of data set [10]: Cytotoxicity against human BT549 cells assessed as growth inhibition at 20 uM after 48 hrs by MTT assay relative to control. Type of data set: functional. Conditions: BT-549, 48 h, read-out: GI.
The test system of data set [11] is 4T1. Nature of the data set: Antitumor activity against luciferase-expressing mouse 4T1 cells allografted in athymic nude BALB/c mouse assessed as tumor growth inhibition at 12.5 mg/kg/week ip administered on first 3 days in first week followed by two shots on day 1 and day 4 at 6.25 mg/kg/week for another 3 weeks measured every other day until day 28 relative to vehicle-treated control. The class given is functional.

As a reminder, the IC50 is the concentration that gives 50% inhibition. Consider `Clc1ccc2[nH]cc(C(c3cccc(C(c4c[nH]c5ccc(Cl)cc45)c4c[nH]c5ccc(Cl)cc45)n3)c3c[nH]c4ccc(Cl)cc34)c2c1`, for which the IC50 is over 20 µM in data set [1]; 6 µM in data set [2]; over 20 µM in data set [3]; over 20 µM in data set [4]; over 20 µM in data set [5]. For the same compound, the inhibition of growth at 20 µM in data set [6] worked out at 0%; in data set [7] it was 5%; in [8], 20%. Also, the inhibition at 48 h, 20 µM in data set [9] was 28%.
`Oc1ccc2[nH]cc(C(c3cccc(C(c4c[nH]c5ccc(O)cc45)c4c[nH]c5ccc(O)cc45)n3)c3c[nH]c4ccc(O)cc34)c2c1`: the IC50 in [1] is 10.3 µM; in data set [2], over 20 µM; in data set [3], over 20 µM; in data set [4], over 20 µM; in data set [5], over 20 µM. Also, the inhibition of growth at 20 µM in data set [10] was determined as 10%; in data set [7], 2%; in [8], 11%. For the same compound, the inhibition at 48 h, 20 µM in data set [9] was 9%.
`N#Cc1ccc2[nH]cc(C(c3cccc(C(c4c[nH]c5ccc(C#N)cc45)c4c[nH]c5ccc(C#N)cc45)n3)c3c[nH]c4ccc(C#N)cc34)c2c1`: the IC50 was over 20 µM in data set [1]; 13 µM in data set [2]; over 20 µM in [3]; over 20 µM in [4]; over 20 µM in [5]. Moreover, the inhibition of growth at 20 µM was 0% in data set [6], 22% in data set [7] and 13% in [8]. For the same compound, the inhibition at 48 h, 20 µM in data set [9] was 0%.
As to `Brc1ccc2[nH]cc(C(c3cccc(C(c4c[nH]c5ccc(Br)cc45)c4c[nH]c5ccc(Br)cc45)n3)c3c[nH]c4ccc(Br)cc34)c2c1`, the IC50 in [1], in [2], in [3], in [4] and in data set [5] was over 20 µM throughout. Besides, the inhibition of growth at 20 µM in [6] turned out to be 13%; in data set [10], 15%; in [7], 0%; in data set [8], 0%. The inhibition at 48 h, 20 µM in data set [9] was determined as 0%.
One may read the TGI as the reduction of tumour growth relative to the control group. Consider `Oc1ccc2[nH]cc(C(c3ccc(C(c4c[nH]c5ccc(O)cc45)c4c[nH]c5ccc(O)cc45)cc3)c3c[nH]c4ccc(O)cc34)c2c1`, for which the TGI in [11] amounted to 16%.
On to `Clc1ccc2[nH]cc(C(c3ccc(C(c4c[nH]c5ccc(Cl)cc45)c4c[nH]c5ccc(Cl)cc45)nc3)c3c[nH]c4ccc(Cl)cc34)c2c1`, for which the IC50 in [1], in [2], in [3], in data set [4] and in [5] was over 20 µM in each case. Further, the inhibition of growth at 20 µM in [6] is 9%; in data set [10], 23%; in data set [7], 0%; in [8], 11%. Besides, the inhibition at 48 h, 20 µM in [9] was found to be 25%.
As for `N#Cc1ccc2[nH]cc(C(c3ccc(C(c4c[nH]c5ccc(C#N)cc45)c4c[nH]c5ccc(C#N)cc45)nc3)c3c[nH]c4ccc(C#N)cc34)c2c1`, the concentration for half-maximal inhibition (IC50) in [1], in [2], in data set [3], in data set [4] and in data set [5] was over 20 µM each time. In addition, the inhibition of growth at 20 µM in data set [6] was 0%; in data set [10], 28%; in data set [7], 22%; in [8], 0%. Besides, the inhibition at 48 h, 20 µM in [9] was 0%.
Turning to `Fc1ccc2[nH]cc(C(c3ccc(C(c4c[nH]c5ccc(F)cc45)c4c[nH]c5ccc(F)cc45)nc3)c3c[nH]c4ccc(F)cc34)c2c1`, the IC50 in [1] is 8.6 µM; in [2], 13.1 µM; in [3], 17 µM; in data set [4], 14 µM; in data set [5], 19 µM.
For `COc1ccc2[nH]cc(C(c3cccc(C(c4c[nH]c5ccc(OC)cc45)c4c[nH]c5ccc(OC)cc45)n3)c3c[nH]c4ccc(OC)cc34)c2c1`, the IC50 in [1] was over 20 µM; in [2], 14 µM; in [3], over 20 µM; in data set [4], over 20 µM; in data set [5], over 20 µM. Further, the inhibition of growth at 20 µM came to 0% in [6], 18% in [7] and 9% in data set [8]. Moreover, the inhibition at 48 h, 20 µM in data set [9] came to 0%.
`COc1ccc2[nH]cc(C(c3ccc(C(c4c[nH]c5ccc(OC)cc45)c4c[nH]c5ccc(OC)cc45)nc3)c3c[nH]c4ccc(OC)cc34)c2c1`: the IC50 in [1], in data set [2], in data set [3], in data set [4] and in [5] was over 20 µM each time. For the same compound, the inhibition of growth at 20 µM in data set [6] amounted to 11%; in data set [10] it was 48%; in data set [7] it was 21%; in data set [8], 29%. Moreover, the inhibition at 48 h, 20 µM in data set [9] was 0%.
As to `c1ccc2c(C(c3ccc(C(c4c[nH]c5ccccc45)c4c[nH]c5ccccc45)nc3)c3c[nH]c4ccccc34)c[nH]c2c1`, the IC50 in [1] is over 20 µM; in data set [2], 15 µM; in data set [3] it was 9 µM; in data set [4], over 20 µM; in [5] it was over 20 µM. Also, the inhibition of growth at 20 µM in data set [6] stood at 4%; in [8], 21%. Besides, the inhibition at 48 h, 20 µM in [9] worked out at 26%.
Take `c1cc(C(c2c[nH]c3ccccc23)c2c[nH]c3ccccc23)nc(C(c2c[nH]c3ccccc23)c2c[nH]c3ccccc23)c1`: the IC50 in data set [1], in [2], in data set [3], in data set [4] and in data set [5] was over 20 µM in each case. For the same compound, the inhibition of growth at 20 µM in [6] amounted to 29%; in data set [10], 22%; in data set [7] it was 8%; in data set [8], 47%. In addition, the inhibition at 48 h, 20 µM in data set [9] came to 32%.
For `c1ccc(COc2ccc3[nH]cc(C(c4cccc(C(c5c[nH]c6ccc(OCc7ccccc7)cc56)c5c[nH]c6ccc(OCc7ccccc7)cc56)n4)c4c[nH]c5ccc(OCc6ccccc6)cc45)c3c2)cc1`, the IC50 in data set [1], in [2], in [3], in data set [4] and in data set [5] was over 20 µM throughout. In addition, the inhibition of growth at 20 µM is 0% in data set [6], 40% in data set [10], 0% in [7] and 0% in data set [8]. The inhibition at 48 h, 20 µM in data set [9] came out at 30%.
`Fc1ccc2[nH]cc(C(c3cccc(C(c4c[nH]c5ccc(F)cc45)c4c[nH]c5ccc(F)cc45)n3)c3c[nH]c4ccc(F)cc34)c2c1`: the IC50 in data set [1] was 9.6 µM; in data set [2] it was 9.7 µM; in [3], 8.9 µM; in data set [4] it was 20 µM; in data set [5] it was 12 µM.
As for `Brc1ccc2[nH]cc(C(c3ccc(C(c4c[nH]c5ccc(Br)cc45)c4c[nH]c5ccc(Br)cc45)nc3)c3c[nH]c4ccc(Br)cc34)c2c1`, the IC50 in data set [1] is over 20 µM; in [2] it was 10 µM; in data set [3], over 20 µM; in data set [4], over 20 µM; in data set [5], over 20 µM. Moreover, the inhibition of growth at 20 µM in data set [6] was 15%; in [7], 0%; in data set [8] it was 0%. Moreover, the inhibition at 48 h, 20 µM in [9] was 0%.
With `Oc1ccc2c(C(c3ccc(C(c4c[nH]c5cc(O)ccc45)c4c[nH]c5cc(O)ccc45)nc3)c3c[nH]c4cc(O)ccc34)c[nH]c2c1`, the IC50 in data set [1] is 14 µM; in data set [2] it was over 20 µM; in data set [3] it was over 20 µM; in [4], over 20 µM; in data set [5], over 20 µM. In addition, the results for the inhibition of growth at 20 µM in [10], in [7] and in data set [8] were 19%, 0% and 0%, respectively. In data set [9], the inhibition at 48 h, 20 µM is 0%.
